System: human bone marrow-derived MSCs
Assay: Real-time PCR of cardiac-specific marker genes after MSCs are treated with HDAC inhibitors
Type: cell-based
Details: 24 hours, TSA 0.5 μM, VPA 3 mM, AC 1 and 3 μM, vs vehicle, FIG. 1
Description: First, MSCs prepared in Example 1 were cultured for one day in a 6-well culture plate containing HIGH glucose/DMEM (4 mM L-glutamine, 4500 mg/L glucose, sodium pyruvate, 10% FBS, 100 U/ml penicillin, 100 μg/ml streptomycin), and then treated with TSA (0.5 μM), VPA (3 mM), and AC (1 and 3 μM) for 24 hours.
Afterward, the cell culture medium was removed from each sample, washed with PBS once, and homogenized with TRIzol for 10 minutes at room temperature, followed by centrifugation after the addition of chloroform. A supernatant obtained by centrifugation was harvested to purify total RNA, and cDNA was synthesized using a reverse transcriptase (MMLV) to be used as a template, followed by real-time PCR performed using the QuantiTect SYBR Green PCR kit. Accordingly, expression levels of the cardiac-specific marker genes (GATA4, Nkx2.5 and cTnI) were confirmed.

| Structure (SMILES) | mRNA expression of GATA4 | mRNA expression of Nkx2.5 | mRNA expression of cTnI |
| --- | --- | --- | --- |
| CC(/C=C/C(=O)NO)=C\[C@@H](C)C(=O)c1ccc(N(C)C)cc1 [TSA, trichostatin A] | no specific effect | no specific effect | had significance |
| CCCC(CCC)C(=O)O [VPA, valproic acid] | promoted | – | promoted |

Reference: US11162077B2, “Apicidin-containing composition for inducing differentiation of mesenchymal stem cells into cardiac-committed cells” (CHONNAM NATIONAL UNIVERSITY HOSPITAL, priority 2015, dated 2021)
